Measured values from PubChem BioAssay AID256 (DTP/NCI, 2004).
Where “and” joins values, the source holds several entries; their conditions need not be identical. Identical values can stand only once. Inconclusive results and toxic doses are left out.

System: CD2F1 mice, L1210 leukemia ip, survival T/C
Test: NCI In Vivo Anticancer Drug Screen. Data for tumor model L1210 Leukemia (intraperitoneal) in CD2F1 (CDF1) mice
Conditions: higher = longer survival
How it was run: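 Ratio T/C, where T is the treated-group value and C the vehicle-dosed control value, from mice implanted with a transplantable tumor.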

[1] = endpoint: mean survival time, dose: 50.0 mg/kg/injection, schedule: Q01DX009 (ip), vehicle: saline with Tween-80
[2] = endpoint: mean survival time, dose: 100.0 mg/kg/injection, schedule: Q01DX009 (ip), vehicle: saline with Tween-80
[3] = endpoint: mean survival time, dose: 100.0 mg/kg/injection, schedule: Q04DX003 (ip), vehicle: saline with Tween-80
[4] = endpoint: mean survival time, dose: 200.0 mg/kg/injection, schedule: Q01DX009 (ip), vehicle: saline with Tween-80
[5] = endpoint: mean survival time, dose: 200.0 mg/kg/injection, schedule: Q04DX003 (ip), vehicle: saline with Tween-80
[6] = endpoint: mean survival time, dose: 12.5 mg/kg/injection, schedule: Q01DX009 (ip), vehicle: saline with Tween-80
[7] = endpoint: mean survival time, dose: 25.0 mg/kg/injection, schedule: Q01DX009 (ip), vehicle: saline with Tween-80
[8] = endpoint: mean survival time, dose: 100.0 mg/kg/injection, schedule: Q01DX001 (ip), vehicle: saline with Tween-80
[9] = endpoint: mean survival time, dose: 200.0 mg/kg/injection, schedule: Q01DX001 (ip), vehicle: saline with Tween-80
[10] = endpoint: mean survival time, dose: 400.0 mg/kg/injection, schedule: Q01DX001 (ip), vehicle: saline with Tween-80
[11] = endpoint: mean survival time, dose: 100.0 mg/kg/injection, schedule: Q04DX002 (ip), vehicle: saline with Tween-80
[12] = endpoint: median survival time, dose: 12.5 mg/kg/injection, schedule: Q01DX005 (ip), vehicle: saline
[13] = endpoint: median survival time, dose: 25.0 mg/kg/injection, schedule: Q01DX005 (ip), vehicle: saline
[14] = endpoint: median survival time, dose: 50.0 mg/kg/injection, schedule: Q01DX005 (ip), vehicle: saline

CN(C)c1ccc([N+](=O)[O-])cc1[N+](=O)[O-]
T/C (endpoint: mean survival time, dose: 62.5 mg/kg/injection, schedule: Q01DX001 (ip), vehicle: Klucel (hydroxypropylcellulose) (HPC)): 94 % of control
T/C (endpoint: mean survival time, dose: 125.0 mg/kg/injection, schedule: Q01DX001 (ip), vehicle: Klucel (hydroxypropylcellulose) (HPC)): 94 % of control
T/C (endpoint: mean survival time, dose: 250.0 mg/kg/injection, schedule: Q01DX001 (ip), vehicle: Klucel (hydroxypropylcellulose) (HPC)): 92 % of control
T/C (endpoint: mean survival time, dose: 500.0 mg/kg/injection, schedule: Q01DX001 (ip), vehicle: Klucel (hydroxypropylcellulose) (HPC)): 102 % of control

O=[N+]([O-])c1ccc(N=Nc2ccc3c(c2)-c2ccccc2C3=P(c2ccccc2)(c2ccccc2)c2ccccc2)cc1
T/C [1]: 94 % of control
T/C [2]: 91 % of control
T/C [3]: 91 % of control
T/C [4]: 94 % of control
T/C [5]: 91 % of control

N#Cc1nc(C#N)c(Sc2ccccc2)c(Sc2ccccc2)c1Sc1ccccc1
T/C (endpoint: mean survival time, dose: 3.12 mg/kg/injection, schedule: Q01DX009 (ip), vehicle: saline with Tween-80): 103 % of control and 104 % of control
T/C (endpoint: mean survival time, dose: 6.25 mg/kg/injection, schedule: Q01DX009 (ip), vehicle: saline with Tween-80): 94 % of control and 100 % of control
T/C [6]: 94 % of control
T/C [7]: 96 % of control and 102 % of control
T/C [1]: 90 % of control and 102 % of control
T/C [2]: 96 % of control and 103 % of control

Cc1nc(-c2ccc(N=Cc3ccc(N(CCOS(C)(=O)=O)CCOS(C)(=O)=O)cc3C)cc2)c(C)s1
T/C (endpoint: mean survival time, dose: 5.0 mg/kg/injection, schedule: Q01DX001 (ip), vehicle: Klucel (hydroxypropylcellulose) (HPC)): 101 % of control
T/C (endpoint: mean survival time, dose: 10.0 mg/kg/injection, schedule: Q01DX001 (ip), vehicle: Klucel (hydroxypropylcellulose) (HPC)): 104 % of control
T/C (endpoint: mean survival time, dose: 20.0 mg/kg/injection, schedule: Q01DX001 (ip), vehicle: Klucel (hydroxypropylcellulose) (HPC)): 104 % of control
T/C (endpoint: mean survival time, dose: 40.0 mg/kg/injection, schedule: Q01DX001 (ip), vehicle: Klucel (hydroxypropylcellulose) (HPC)): 115 % of control

COC1OC2COC(c3ccccc3)OC2C2NC(N)(N[N+](=O)[O-])C12O (stereo not drawn)
T/C [8]: 91 % of control
T/C [9]: 88 % of control
T/C [10]: 94 % of control

CCOC(=O)C1=C(N)SC(=O)C1
T/C [3]: 100 % of control
T/C [5]: 104 % of control
T/C (endpoint: mean survival time, dose: 400.0 mg/kg/injection, schedule: Q04DX003 (ip), vehicle: saline with Tween-80): 95 % of control

CCOC(=O)C/C(C)=C/c1ccccc1 (tested in a mixture with another compound)
T/C [8]: 95 % of control
T/C [11]: 98 % of control
T/C [9]: 87 % of control
T/C (endpoint: mean survival time, dose: 200.0 mg/kg/injection, schedule: Q04DX002 (ip), vehicle: saline with Tween-80): 90 % of control
T/C [10]: 94 % of control
T/C (endpoint: mean survival time, dose: 400.0 mg/kg/injection, schedule: Q04DX002 (ip), vehicle: saline with Tween-80): 110 % of control

Fc1ccc(N2CCNCC2)cc1
T/C (endpoint: mean survival time, dose: 12.5 mg/kg/injection, schedule: Q04DX003 (ip), vehicle: saline): 101 % of control
T/C (endpoint: mean survival time, dose: 25.0 mg/kg/injection, schedule: Q04DX003 (ip), vehicle: saline): 103 % of control
T/C (endpoint: mean survival time, dose: 50.0 mg/kg/injection, schedule: Q04DX003 (ip), vehicle: saline): 92 % of control

CC1OC(Sc2ncnc3nc[nH]c23)C(O)C(O)C1O (stereo not drawn)
T/C (endpoint: median survival time, dose: 12.5 mg/kg/injection, schedule: Q01DX005 (ip), vehicle: saline with Tween-80): 105 % of control
T/C (endpoint: median survival time, dose: 25.0 mg/kg/injection, schedule: Q01DX005 (ip), vehicle: saline with Tween-80): 107 % of control
T/C (endpoint: median survival time, dose: 50.0 mg/kg/injection, schedule: Q01DX005 (ip), vehicle: saline with Tween-80): 103 % of control and 109 % of control
T/C (endpoint: median survival time, dose: 100.0 mg/kg/injection, schedule: Q01DX005 (ip), vehicle: saline with Tween-80): 122 % of control
T/C (endpoint: median survival time, dose: 200.0 mg/kg/injection, schedule: Q01DX005 (ip), vehicle: saline with Tween-80): 150 % of control and 151 % of control
T/C (endpoint: median survival time, dose: 400.0 mg/kg/injection, schedule: Q01DX005 (ip), vehicle: saline with Tween-80): 170 % of control

CCCCCCCCN(C=O)CCCCCCCC
T/C (endpoint: mean survival time, dose: 25.0 mg/kg/injection, schedule: Q04DX002 (ip), vehicle: saline with Tween-80): 93 % of control
T/C (endpoint: mean survival time, dose: 50.0 mg/kg/injection, schedule: Q04DX002 (ip), vehicle: saline with Tween-80): 96 % of control
T/C [11]: 104 % of control

O=NNc1ccccn1
T/C (endpoint: mean survival time, dose: 8.0 mg/kg/injection, schedule: Q04DX003 (ip), vehicle: saline): 114 % of control
T/C (endpoint: median survival time, dose: 0.78 mg/kg/injection, schedule: Q01DX009 (ip), vehicle: saline): 104 % of control
T/C (endpoint: median survival time, dose: 1.56 mg/kg/injection, schedule: Q01DX005 (ip), vehicle: saline): 107 % of control
T/C (endpoint: median survival time, dose: 1.56 mg/kg/injection, schedule: Q01DX009 (ip), vehicle: saline): 106 % of control
T/C (endpoint: median survival time, dose: 3.12 mg/kg/injection, schedule: Q01DX005 (ip), vehicle: saline): 117 % of control and 110 % of control
T/C (endpoint: median survival time, dose: 3.12 mg/kg/injection, schedule: Q01DX009 (ip), vehicle: saline): 110 % of control
T/C (endpoint: median survival time, dose: 3.13 mg/kg/injection, schedule: Q01DX005 (ip), vehicle: saline): 122 % of control
T/C (endpoint: median survival time, dose: 6.25 mg/kg/injection, schedule: Q01DX005 (ip), vehicle: saline): 117 % of control
T/C (endpoint: median survival time, dose: 6.25 mg/kg/injection, schedule: Q01DX009 (ip), vehicle: saline): 119 % of control
T/C [12]: 160 % of control
T/C [13]: 184 % of control and 187 % of control
T/C [14]: 96 % of control and 103 % of control

Cn1c(=O)[nH]cc(C2OC(CO)C(O)C2O)c1=O (stereo not drawn)
T/C [12]: 103 % of control
T/C [13]: 100 % of control
T/C [14]: 92 % of control
T/C (endpoint: median survival time, dose: 100.0 mg/kg/injection, schedule: Q01DX005 (ip), vehicle: saline): 100 % of control
T/C (endpoint: median survival time, dose: 200.0 mg/kg/injection, schedule: Q01DX005 (ip), vehicle: saline): 107 % of control

CC(=O)CC(=O)Nc1ccccc1
T/C [6]: 101 % of control
T/C [7]: 97 % of control
T/C [1]: 97 % of control

C[N+](C)(CC(=O)O)c1ccccc1
T/C (endpoint: mean survival time, dose: 100.0 mg/kg/injection, schedule: Q04DX003 (ip), vehicle: saline): 98 % of control
T/C (endpoint: mean survival time, dose: 200.0 mg/kg/injection, schedule: Q04DX003 (ip), vehicle: saline): 96 % of control
T/C (endpoint: mean survival time, dose: 400.0 mg/kg/injection, schedule: Q04DX003 (ip), vehicle: saline): 108 % of control

CN(C)CCCCNc1ccc(NCCCCN(C)C)c2c1C(=O)c1c(O)ccc(O)c1C2=O
T/C (endpoint: mean survival time, dose: 25.0 mg/kg/injection, schedule: Q01DX009 (ip), vehicle: saline): 102 % of control
T/C (endpoint: mean survival time, dose: 50.0 mg/kg/injection, schedule: Q01DX009 (ip), vehicle: saline): 98 % of control
T/C (endpoint: mean survival time, dose: 100.0 mg/kg/injection, schedule: Q01DX009 (ip), vehicle: saline): 93 % of control

NC(N)=NCCc1ccccc1
T/C (endpoint: mean survival time, dose: 5.0 mg/kg/injection, schedule: Q01DX009 (ip), vehicle: saline): 102 % of control
T/C (endpoint: mean survival time, dose: 5.0 mg/kg/injection, schedule: Q04DX003 (ip), vehicle: saline): 92 % of control
T/C (endpoint: mean survival time, dose: 10.0 mg/kg/injection, schedule: Q01DX009 (ip), vehicle: saline): 103 % of control
T/C (endpoint: mean survival time, dose: 10.0 mg/kg/injection, schedule: Q04DX003 (ip), vehicle: saline): 102 % of control
T/C (endpoint: mean survival time, dose: 20.0 mg/kg/injection, schedule: Q01DX009 (ip), vehicle: saline): 96 % of control
T/C (endpoint: mean survival time, dose: 20.0 mg/kg/injection, schedule: Q04DX003 (ip), vehicle: saline): 97 % of control

CNOCc1ccc(C(=O)NC(C)C)cc1
T/C (endpoint: mean survival time, dose: 25.0 mg/kg/injection, schedule: Q01DX009 (ip), vehicle: other): 98 % of control
T/C (endpoint: mean survival time, dose: 50.0 mg/kg/injection, schedule: Q01DX009 (ip), vehicle: other): 100 % of control
T/C (endpoint: mean survival time, dose: 100.0 mg/kg/injection, schedule: Q01DX009 (ip), vehicle: other): 98 % of control
T/C (endpoint: mean survival time, dose: 200.0 mg/kg/injection, schedule: Q01DX009 (ip), vehicle: other): 100 % of control
T/C (endpoint: mean survival time, dose: 400.0 mg/kg/injection, schedule: Q01DX009 (ip), vehicle: other): 118 % of control

Cc1ccc(S(=O)(=O)NC(=S)S)cc1
T/C [6]: 102 % of control and 110 % of control
T/C [7]: 115 % of control and 103 % of control
T/C [1]: 110 % of control and 112 % of control
T/C [2]: 113 % of control and 103 % of control
T/C [4]: 105 % of control and 111 % of control
T/C (endpoint: mean survival time, dose: 400.0 mg/kg/injection, schedule: Q01DX009 (ip), vehicle: saline with Tween-80): 105 % of control and 109 % of control

C=CC[n+]1ccccc1Cc1ccccc1
T/C (endpoint: mean survival time, dose: 25.0 mg/kg/injection, schedule: Q01DX001 (ip), vehicle: saline): 98 % of control
T/C (endpoint: mean survival time, dose: 50.0 mg/kg/injection, schedule: Q01DX001 (ip), vehicle: saline): 95 % of control
